Assay results taken from patent US9981923B2, “1,2,3 Triazole antifungal agents and preparation thereof” (COUNCIL OF SCIENTIFIC & INDUSTRIAL RESEARCH, priority 2014, dated 2018).
Values after ≈ are worked out from the molar mass of the structure shown. Read-outs that look alike come from different tables or passages of the source.

What was measured:
Assay in all cases: Antifungal susceptibility by microbroth dilution (CLSI)
Assay type in all cases: cell-based
[1] = system: Candida albicans ATCC 10231
Method: (§1) The synthesized compounds were evaluated for antifungal susceptibility by microbroth dilution method according to the recommendations of the Clinical Laboratory Standards Institute (CLSI 2008). Briefly, appropriate amount of compounds were dissolved in dimethyl sulfoxide to get 100× final strength. The stock was then diluted 1:50 in RPMI/YPG medium and 200 μl from this was added to the first row of a 96-well microtitre plate. The compounds were serially diluted two fold in successive wells to get a range of 1-128 μg/ml. Fungal yeast cells (˜2×10^3 cfu/mL), freshly grown in YPG broth in logarithmic phase, were suspended in the medium and inoculated (100 μl) in the wells of the plate. For filamentous fungi, 2×10^4 spores/mL were added. The microtitre plate was incubated for 48 h, and the absorbance was measured at 600 nm by using microtitre plate reader to assess cell growth.

[2] = system: Candida glabrata NCYC 388
Method: as §1

[3] = system: Cryptococcus neoformans ATCC 34664
Method: as §1

[4] = system: Aspergillus niger ATCC 10578
Method: as §1

[5] = system: Candida albicans ATCC 24433
Method: as §1

[6] = system: Aspergillus fumigatus MCC 1046
Method: as §1

[7] = system: C. tropicalis ATCC 750; details: Table 2; for MIC: Candida tropicalis, ATCC750
Method: as §1

[8] = Table 1, 48 h, >90% inhibition of growth
[9] = Table 1, 48 h, >90% inhibition of growth, range 1-128 μg/ml
[10] = Candida albicans, ATCC10231, Table 2, read-out: MIC values
[11] = Nakaseomyces glabratus, NCYC388, Table 2, read-out: MIC values
[12] = Cryptococcus neoformans, ATCC34664, Table 2, read-out: MIC values
[13] = Aspergillus niger, ATCC10578, Table 2, read-out: MIC values
[14] = Candida albicans, ATCC24433, Table 2, read-out: MIC values
[15] = Aspergillus fumigatus, MCC1046, Table 2, read-out: MIC values

Compound | MIC [1, 10] [µg/mL] | MIC [2, 11] [µg/mL] | MIC [7] [µg/mL] | MIC [3, 12] [µg/mL] | MIC [4, 13] [µg/mL] | MIC [5, 14] [µg/mL] | MIC [6, 15] [µg/mL] | also measured
CCC(O)(c1ccccc1)c1cn(-c2ccc(Cl)cc2O)nn1 (centres unmarked) [Compound 2db] | – | – | – | – | – | – | – | MIC [1, 8]: 128 µg/mL (≈ 388 µM); MIC [2, 8]: 64 µg/mL (≈ 194 µM); MIC [3, 8]: 128 µg/mL (≈ 388 µM); MIC [4, 8]: 128 µg/mL (≈ 388 µM); MIC [5, 9]: >128 µg/mL; MIC [6, 8]: 128 µg/mL (≈ 388 µM)
CCCCC(O)(Cc1cn(-c2ccc(Cl)cc2O)nn1)c1ccccc1 (centres unmarked) [Compound 2hb] | – | – | – | – | – | – | – | MIC [1, 8]: >128 µg/mL; MIC [2, 8]: 64 µg/mL (≈ 172 µM); MIC [3, 8]: 32 µg/mL (≈ 86.1 µM); MIC [4, 8]: >128 µg/mL; MIC [5, 9]: 64 µg/mL (≈ 172 µM); MIC [6, 8]: >128 µg/mL
CN(C)c1ccc(C(O)Cc2cn(-c3cc(Cl)ccc3O)nn2)cc1 (centres unmarked) [Compound 3ga, 4-Chloro-2-(4-(2-(4-(dimethylamino)phenyl)-2-hydroxyethyl)-1H-1,2,3-triazol-1-yl)phenol] | – | – | – | – | – | – | – | MIC values ([1]; Table 2): 16 µg/mL (≈ 44.6 µM); MIC values ([2]; Table 2): 16 µg/mL (≈ 44.6 µM); MIC values [7]: >256 µg/mL; MIC values ([3]; Table 2): 64 µg/mL (≈ 178 µM); MIC values ([4]; Table 2): >256 µg/mL; MIC values ([5]; Table 2): 64 µg/mL (≈ 178 µM); MIC values ([6]; Table 2): >256 µg/mL
CC(O)(Cc1cn(-c2ccc(Cl)cc2O)nn1)c1ccc(F)cc1 (centres unmarked) [Compound 3db, 5-Chloro-2-(4-(2-(4-fluorophenyl)-2-hydroxypropyl)-1H-1,2,3-triazol-1-yl)phenol] | – | – | 128 (≈ 368 µM) | 128 (≈ 368 µM) | 64 (≈ 184 µM) | 16 (≈ 46 µM) | 32 (≈ 92 µM) | –
CC(O)(Cc1cn(-c2ccc(F)cc2O)nn1)c1ccc(F)cc1F (centres unmarked) [Compound 3ac, 2-(4-(2-(2,4-Difluorophenyl)-2-hydroxypropyl)-1H-1,2,3-triazol-1-yl)-5-fluorophenol] | – | – | 128 (≈ 366 µM) | 128 (≈ 366 µM) | 128 (≈ 366 µM) | 8 (≈ 22.9 µM) | 64 (≈ 183 µM) | –

The remaining compounds from weak to strong by MIC [7], led by results:

MIC [1, 10] [µg/mL] | MIC [2, 11] [µg/mL] | MIC [7] [µg/mL] | MIC [3, 12] [µg/mL] | MIC [4, 13] [µg/mL] | MIC [5, 14] [µg/mL] | MIC [6, 15] [µg/mL] | Compound | also measured
32 (≈ 92 µM) | 64 (≈ 184 µM) | 128 (≈ 368 µM) | 64 (≈ 184 µM) | 128 (≈ 368 µM) | 32 (≈ 92 µM) | 64 (≈ 184 µM) | CC(O)(Cc1cn(-c2cc(Cl)ccc2O)nn1)c1ccc(F)cc1 (centres unmarked) [Compound 3da, 4-Chloro-2-(4-(2(4fluorophenyl)-2-hydroxypropyl)-1H-1,2,3-triazol-1-yl)phenol] | –
16 (≈ 40.8 µM) | 64 (≈ 163 µM) | 128 (≈ 326 µM) | 64 (≈ 163 µM) | 128 (≈ 326 µM) | 8 (≈ 20.4 µM) | 64 (≈ 163 µM) | CC(O)(Cc1cn(-c2ccc(F)cc2O)nn1)c1ccc(Br)cc1 (centres unmarked) [Compound 3fc, 2-(4-(2-(4-Bromophenyl)-2-hydroxypropyl)-1H-1,2,3-triazol-1-yl)-5-fluorophenol] | –
32 (≈ 87.5 µM) | 32 (≈ 87.5 µM) | 128 (≈ 350 µM) | 64 (≈ 175 µM) | 128 (≈ 350 µM) | 32 (≈ 87.5 µM) | > 256 | CC(O)(Cc1cn(-c2cc(Cl)ccc2O)nn1)c1ccc(F)cc1F (centres unmarked) [Compound 3aa, 4-Chloro-2-(4-(2-(2,4-difluorophenyl)-2-hydroxypropyl)-1H-1,2,3-triazol-1-yl)phenol] | –
16 (≈ 39.2 µM) | 32 (≈ 78.3 µM) | 64 (≈ 157 µM) | 32 (≈ 78.3 µM) | 64 (≈ 157 µM) | 16 (≈ 39.2 µM) | 64 (≈ 157 µM) | CC(O)(Cc1cn(-c2ccc(Cl)cc2O)nn1)c1ccc(Br)cc1 (centres unmarked) [Compound 3fb, 2-(4-(2-(4-Bromophenyl)-2-hydroxypropyl)-1H-1,2,3-triazol-1-yl)-5-chlorophenol] | –
32 (≈ 87.5 µM) | 32 (≈ 87.5 µM) | 64 (≈ 175 µM) | 32 (≈ 87.5 µM) | 64 (≈ 175 µM) | 16 (≈ 43.7 µM) | 64 (≈ 175 µM) | CC(O)(Cc1cn(-c2ccc(Cl)cc2O)nn1)c1ccc(F)cc1F (centres unmarked) [Compound 3ab, 5-Chloro-2-(4-(2-(2,4-difluorophenyl)-2-hydroxypropyl)-1H-1,2,3-triazol-1-yl)phenol] | –
8 (≈ 20.9 µM) | 16 (≈ 41.9 µM) | 32 (≈ 83.7 µM) | 16 (≈ 41.9 µM) | 64 (≈ 167 µM) | 16 (≈ 41.9 µM) | 64 (≈ 167 µM) | CC(O)(Cc1cn(-c2ccc(F)cc2O)nn1)c1ccc(Cl)cc1Cl (centres unmarked) [Compound 3bc, 2-(4-(2-(2,4-Dichlorophenyl)-2-hydroxypropyl)-1H-1,2,3-triazol-1-yl)-5-fluorophenol] | –
